Reference: paper PMC7650622, “3D-Printed Bubble-Free Perfusion Cartridge System for Live-Cell Imaging” (Sensors (Basel, Switzerland), 2020)
pEC50: −log10 of the molar value.

Target: T1, Or13a cells (OR from Drosophila melanogaster with Orco) (Drosophila melanogaster, UniProt Q9VXL0)
T1 construct: with Odorant receptor coreceptor
T1 sequence (Q9VXL0 1-418): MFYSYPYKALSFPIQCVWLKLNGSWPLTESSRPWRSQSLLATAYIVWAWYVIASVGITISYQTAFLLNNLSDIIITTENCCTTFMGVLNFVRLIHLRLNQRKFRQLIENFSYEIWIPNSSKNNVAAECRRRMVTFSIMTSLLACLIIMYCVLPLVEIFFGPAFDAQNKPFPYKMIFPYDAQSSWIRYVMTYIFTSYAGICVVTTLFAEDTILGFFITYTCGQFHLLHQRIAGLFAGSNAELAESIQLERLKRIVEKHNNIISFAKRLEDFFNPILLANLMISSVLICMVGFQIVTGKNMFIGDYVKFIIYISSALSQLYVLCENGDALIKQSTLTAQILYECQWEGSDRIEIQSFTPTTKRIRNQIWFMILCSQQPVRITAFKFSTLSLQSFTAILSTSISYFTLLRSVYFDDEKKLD
T1 sequence (Q9VNB5 1-486 partner): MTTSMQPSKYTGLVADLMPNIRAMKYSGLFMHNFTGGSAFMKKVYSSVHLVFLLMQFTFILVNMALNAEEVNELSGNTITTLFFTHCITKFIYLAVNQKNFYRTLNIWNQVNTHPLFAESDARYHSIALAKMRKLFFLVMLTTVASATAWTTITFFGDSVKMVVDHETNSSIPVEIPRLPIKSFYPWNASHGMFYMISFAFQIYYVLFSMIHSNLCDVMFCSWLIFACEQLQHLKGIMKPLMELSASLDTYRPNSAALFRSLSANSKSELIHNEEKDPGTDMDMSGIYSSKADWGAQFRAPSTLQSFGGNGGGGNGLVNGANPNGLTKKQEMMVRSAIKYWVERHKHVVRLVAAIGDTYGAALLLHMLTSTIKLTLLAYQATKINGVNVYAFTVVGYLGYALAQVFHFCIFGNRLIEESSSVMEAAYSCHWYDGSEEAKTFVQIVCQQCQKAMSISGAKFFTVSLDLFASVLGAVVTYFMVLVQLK
Experiment: GCaMP6s calcium imaging of Sf21 cells, dose-response
Assay type: cell-based

C=CC(O)CCCCC (stereo not shown) [1-octen-3-ol] was tested, and the pEC50 was 5.08.
